Assay results taken from US11492346B2, “Benzisoxazole sulfonamide derivatives” (Pfizer Inc., priority 2019, dated 2022).
Like-named read-outs stand apart in the source and are kept apart here.

Key:
Format in all cases: biochemical
KAT5 = KAT5 (Homo sapiens (Human), UniProt Q92993); experiment: KAT assay (SAMDI mass spectrometry), KAT5; conditions: read-out: KAT5 Ki at 1 μM AcCoA;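 also: Baculovirus-expressed KAT5 acetylating a histone H4 peptide at room temperature, read as percent conversion to product, Ki from a Morrison tight-binding competitive fit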
Chain of KAT5 (Q92993 whole entry): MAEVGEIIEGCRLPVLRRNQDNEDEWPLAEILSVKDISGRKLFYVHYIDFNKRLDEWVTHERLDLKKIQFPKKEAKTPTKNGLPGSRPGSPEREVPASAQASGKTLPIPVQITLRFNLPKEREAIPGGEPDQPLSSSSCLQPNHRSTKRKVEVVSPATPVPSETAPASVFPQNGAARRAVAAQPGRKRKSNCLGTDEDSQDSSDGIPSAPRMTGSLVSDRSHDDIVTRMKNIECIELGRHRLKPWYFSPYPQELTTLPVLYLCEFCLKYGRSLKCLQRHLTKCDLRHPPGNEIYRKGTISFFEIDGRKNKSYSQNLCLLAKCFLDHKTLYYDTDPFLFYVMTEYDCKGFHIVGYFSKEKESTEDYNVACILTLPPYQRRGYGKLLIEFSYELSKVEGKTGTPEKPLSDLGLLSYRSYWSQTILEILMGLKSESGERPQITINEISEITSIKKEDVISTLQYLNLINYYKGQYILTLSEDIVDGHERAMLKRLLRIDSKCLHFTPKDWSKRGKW
Method: (§1) Prepare 10 mM stock solutions in 100% DMSO from solid material • 2. Serial dilute 10 mM, 1 mM or 0.1 mM compound stocks 3-fold in 100% DMSO for 11-point dose response
(§2) Prepare 1× assay buffer containing 10 mM Tris HCL pH 8.0, 2.5 mM NaCl, 0.5 mM EDTA, 0.005% BSG and 0.02% Tween-20 • 2. Dilute Histone peptide (CPC Scientific) and AcCoA (Sigma) together in assay buffer to 2×. • 3. Dilute KAT enzyme in assay buffer to 2×.
(§3) Enzyme reaction • 1. Final reaction conditions for each KAT assay in a 20 ul assay reaction volume: • i. KAT5 25 nM, 1 uM AcCoA, 2 uM H4 1-21 peptide, 30-minute reaction • ii. KAT6A 15 nM, 1 uM AcCoA, 2 uM H3 1-21 peptide, 45-minute reaction • iii. KAT6B 25 nM, 1 uM AcCoA, 2 uM H3 1-21 peptide, 60-minute reaction • iv. KAT7 12.5 nM, 1 uM AcCoA, 2 uM H3 1-21 peptide, 45-minute reaction • v. KAT8 15 nM, 1 uM AcCoA, 2 uM H3 1-21 peptide, 45-minute reaction • 2. Add 0.5 ul of diluted compound to the assay plate (384-well V-bottom polypropylene plates) or 0.5 ul of DMSO for control wells. • 3. Add 10 ul of 2× Histone peptide/2×AcCoA mix to the assay plate. • 4. Add 10 ul of 2× enzyme to the assay plate. • 5. Stop the reaction after the indicated time with the addition of 2 ul of 5% formic acid • 6. Each reaction was analyzed using self-assembled monolayer desorption/ionization time-of-flight mass spectrometry (Mrksich, Milan (2008) Mass Spectrometry of Self-Assembled Monolayers: A New Tool for Molecular Surface Science ACS Nano 2008 2 (1), 7-18; SAMDI Tech, Inc. (Chicago, Ill.)). • 7. Area under the curve (AUC) for both substrate and product peaks was determined for KAT5 at M.W. 2561 [Substrate+H]^+ and 2603 [Product+H]^+ with a +/−1 Da tolerance, respectively • 8. Area under the curve (AUC) for both substrate and product peaks was determined for KAT6a, KAT6B, KAT7 and KAT8 at M.W. 2723 [Substrate+H]^+ and 2765 [Product+H]^+ with a +/−1 Da tolerance, respectively. […] Percent conversion to product was calculated by: AUCProduct/(AUCsubstrate+AUCProduct).
(§4) IC50 values were determined by fitting the % conversion at each inhibitor concentration to the 4-parameter IC50 equation using Pfizer proprietary curve fitting software. • 2. Ki values were determined by fitting the % conversion at each inhibitor concentration to the Morrison equation for tightbinding competitive inhibitors using Pfizer proprietary curve fitting software.
(§5) KAT enzymes were expressed using a baculovirus expression system and purified at Pfizer, La Jolla. […] Acetyl coenzyme A was purchased from Sigma-Aldrich (St. Louis, Mo.). All other biochemical reagents were purchased from Sigma-Aldrich or ThermoFisher Scientific (Waltham, Mass.).
(§6) KAT assays were performed at room temperature in assay buffer containing 1 μM AcCoA, 2 μM histone peptide, 10 mM Tris HCL pH 8.0, 2.5 mM NaCl, 0.5 mM EDTA, 0.005% BSG and 0.02% Tween-20. 10 ul of 2× Histone peptide/AcCoA mix was added to a 384-well V-bottom polypropylene assay plate containing 0.5 ul of serially diluted test compound in 100% dimethyl sulfoxide (DMSO). To start the reaction, 10 ul of 2× enzyme solution was added to the assay plate. KAT assays were terminated after 30-60 minutes with the addition of 2 ul of 5% formic acid. All assays used histone H3 (1-21) peptide except for the KAT5 assay which used histone H4 (1-21) peptide. The final enzyme concentration for each KAT was as follows: KAT5, 25 nM; KAT6A, 15 nM; KAT6B, 25 nM; KAT7, 12.5 nM; KAT8 15 nM. Each reaction was analyzed using self-assembled monolayer desorption/ionization time-of-flight mass spectrometry (Mrksich, Milan (2008) Mass Spectrometry of Self-Assembled Monolayers: A New Tool for Molecular Surface Science ACS Nano 2008 2 (1), 7-18; SAMDI Tech, Inc. (Chicago, Ill.)).
(§7) Area under the curve (AUC) for both substrate and product peaks was determined for KAT5 at M.W. 2561 [Substrate+H]^+ and 2603 [Product+H]^+ with a +/−1 Da tolerance, respectively.

KAT6B = KAT6B (Homo sapiens (Human), UniProt Q8WYB5); experiment: KAT assay (SAMDI mass spectrometry), KAT6B
Chain of KAT6B (Q8WYB5 whole entry): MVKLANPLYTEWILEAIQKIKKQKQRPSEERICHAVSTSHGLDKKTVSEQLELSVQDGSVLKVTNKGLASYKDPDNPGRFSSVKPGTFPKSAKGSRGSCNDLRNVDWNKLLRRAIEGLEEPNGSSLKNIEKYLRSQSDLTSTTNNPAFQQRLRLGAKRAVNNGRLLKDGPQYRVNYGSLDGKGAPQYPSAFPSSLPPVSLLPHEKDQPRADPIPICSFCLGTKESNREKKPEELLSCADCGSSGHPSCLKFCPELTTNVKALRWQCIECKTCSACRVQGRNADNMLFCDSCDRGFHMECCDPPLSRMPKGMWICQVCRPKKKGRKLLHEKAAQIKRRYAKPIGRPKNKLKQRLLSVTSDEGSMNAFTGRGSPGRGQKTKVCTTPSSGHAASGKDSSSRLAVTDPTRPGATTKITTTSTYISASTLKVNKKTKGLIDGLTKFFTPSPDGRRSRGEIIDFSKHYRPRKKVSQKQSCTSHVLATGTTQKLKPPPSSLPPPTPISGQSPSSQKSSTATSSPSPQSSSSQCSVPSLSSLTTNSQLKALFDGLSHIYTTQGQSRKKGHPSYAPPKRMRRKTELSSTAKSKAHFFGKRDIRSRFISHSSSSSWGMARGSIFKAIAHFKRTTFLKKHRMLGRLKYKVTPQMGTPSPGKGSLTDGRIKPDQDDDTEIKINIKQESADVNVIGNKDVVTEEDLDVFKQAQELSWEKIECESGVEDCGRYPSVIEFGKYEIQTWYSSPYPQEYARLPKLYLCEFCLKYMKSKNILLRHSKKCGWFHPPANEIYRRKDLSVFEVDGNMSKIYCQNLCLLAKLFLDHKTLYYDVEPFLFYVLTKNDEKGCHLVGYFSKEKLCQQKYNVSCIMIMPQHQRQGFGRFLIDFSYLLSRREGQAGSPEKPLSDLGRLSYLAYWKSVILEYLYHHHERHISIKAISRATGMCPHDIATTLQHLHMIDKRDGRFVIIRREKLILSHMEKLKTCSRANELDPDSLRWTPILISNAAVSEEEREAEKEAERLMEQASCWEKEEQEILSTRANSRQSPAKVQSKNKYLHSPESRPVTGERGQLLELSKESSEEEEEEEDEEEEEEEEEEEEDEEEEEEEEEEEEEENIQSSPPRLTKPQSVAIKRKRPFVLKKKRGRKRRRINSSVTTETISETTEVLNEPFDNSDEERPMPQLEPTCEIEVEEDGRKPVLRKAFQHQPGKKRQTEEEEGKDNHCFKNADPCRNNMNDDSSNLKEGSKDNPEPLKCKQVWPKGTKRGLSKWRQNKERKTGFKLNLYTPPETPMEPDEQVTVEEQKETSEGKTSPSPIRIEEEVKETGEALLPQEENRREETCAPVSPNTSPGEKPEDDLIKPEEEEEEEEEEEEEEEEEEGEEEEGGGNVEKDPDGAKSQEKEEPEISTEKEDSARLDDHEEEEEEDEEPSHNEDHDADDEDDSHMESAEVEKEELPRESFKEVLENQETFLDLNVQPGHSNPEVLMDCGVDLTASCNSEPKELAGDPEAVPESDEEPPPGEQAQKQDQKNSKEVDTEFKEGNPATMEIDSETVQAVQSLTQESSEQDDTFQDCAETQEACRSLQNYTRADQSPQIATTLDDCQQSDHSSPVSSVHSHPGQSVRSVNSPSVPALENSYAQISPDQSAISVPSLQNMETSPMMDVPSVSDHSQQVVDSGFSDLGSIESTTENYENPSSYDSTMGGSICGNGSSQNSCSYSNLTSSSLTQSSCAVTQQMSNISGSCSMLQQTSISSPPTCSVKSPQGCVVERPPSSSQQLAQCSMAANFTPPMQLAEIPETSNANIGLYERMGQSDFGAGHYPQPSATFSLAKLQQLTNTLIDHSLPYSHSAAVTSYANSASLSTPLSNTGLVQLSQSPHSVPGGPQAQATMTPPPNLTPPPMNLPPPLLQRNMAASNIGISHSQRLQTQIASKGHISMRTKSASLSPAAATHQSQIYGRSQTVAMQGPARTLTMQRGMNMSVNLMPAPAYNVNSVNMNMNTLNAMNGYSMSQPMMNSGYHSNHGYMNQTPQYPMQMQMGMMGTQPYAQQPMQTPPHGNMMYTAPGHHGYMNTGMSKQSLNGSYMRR
Method: as §1, §2, §3, §4, §5, §6, §7

KAT7 = KAT7 (Homo sapiens (Human), UniProt O95251); experiment: KAT assay (SAMDI mass spectrometry), KAT7;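 also: Baculovirus-expressed enzyme acetylating a histone peptide at room temperature, percent conversion from product and substrate peak areas, Ki from a Morrison tight-binding competitive fit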
Chain of KAT7 (O95251 whole entry): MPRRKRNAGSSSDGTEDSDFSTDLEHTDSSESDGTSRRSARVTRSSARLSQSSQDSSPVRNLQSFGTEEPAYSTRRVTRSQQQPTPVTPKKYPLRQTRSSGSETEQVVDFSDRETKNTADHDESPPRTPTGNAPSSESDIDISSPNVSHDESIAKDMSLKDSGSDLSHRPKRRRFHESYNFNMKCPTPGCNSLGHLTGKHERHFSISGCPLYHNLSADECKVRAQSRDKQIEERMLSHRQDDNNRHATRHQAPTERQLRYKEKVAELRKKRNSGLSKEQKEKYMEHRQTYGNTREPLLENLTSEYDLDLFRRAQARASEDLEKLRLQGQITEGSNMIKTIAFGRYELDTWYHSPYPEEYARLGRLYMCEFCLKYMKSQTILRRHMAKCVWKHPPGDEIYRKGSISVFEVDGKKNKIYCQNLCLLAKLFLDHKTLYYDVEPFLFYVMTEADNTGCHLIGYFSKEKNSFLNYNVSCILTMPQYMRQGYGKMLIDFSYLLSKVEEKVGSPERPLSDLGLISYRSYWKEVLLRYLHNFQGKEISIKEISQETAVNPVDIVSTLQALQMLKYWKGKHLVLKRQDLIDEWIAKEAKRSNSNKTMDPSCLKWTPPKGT
Method: as §1, §2, §3, §4, §5, §6, §7

KAT6A = KAT6A (Homo sapiens (Human), UniProt Q92794); experiment: KAT assay (SAMDI mass spectrometry), KAT6A;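 also: Baculovirus-expressed KAT6A acetylating histone H3 (1-21) peptide (2 µM), 30-60 min at room temperature, % product conversion fitted to Morrison equation for tight-binding competitive inhibitors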
Method: as §1, §2, §3, §4, §5, §6, §7

KAT8 = KAT8 (Homo sapiens (Human), UniProt Q9H7Z6); experiment: KAT assay (SAMDI mass spectrometry), KAT8; conditions: read-out: KAT8 Ki at 1 μM AcCoA
Chain of KAT8 (Q9H7Z6 whole entry): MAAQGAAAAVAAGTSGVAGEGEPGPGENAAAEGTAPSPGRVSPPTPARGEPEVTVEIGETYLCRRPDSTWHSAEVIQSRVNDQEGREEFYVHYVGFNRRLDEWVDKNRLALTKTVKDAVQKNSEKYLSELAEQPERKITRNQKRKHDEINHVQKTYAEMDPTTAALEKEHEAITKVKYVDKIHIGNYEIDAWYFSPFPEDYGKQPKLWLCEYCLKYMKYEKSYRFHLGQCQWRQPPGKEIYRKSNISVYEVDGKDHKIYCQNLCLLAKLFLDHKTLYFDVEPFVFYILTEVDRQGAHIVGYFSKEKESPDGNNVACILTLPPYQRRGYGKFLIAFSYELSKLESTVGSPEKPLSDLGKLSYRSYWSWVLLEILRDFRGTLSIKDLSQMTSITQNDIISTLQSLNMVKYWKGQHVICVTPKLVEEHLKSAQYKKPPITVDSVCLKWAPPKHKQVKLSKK
Method: as §1, §2, §3, §4, §5, §6, §7

[1] = 25 μM AcCoA, read-out: KAT6b Ki at 25 μM AcCoA
[2] = read-out: KAT6b Ki at 1 μM AcCoA, 1 μM AcCoA
[3] = read-out: KAT7 Ki at 1 μM AcCoA
[4] = read-out: KAT6a Ki at 1 μM AcCoA, 1 μM AcCoA
[5] = read-out: KAT6a Ki at 10 μM AcCoA, 10 μM AcCoA

| SMILES | Ki (KAT5) [µM] | Ki (KAT6B; [1]) [µM] | Ki (KAT6B; [2]) [µM] | Ki (KAT7; [3]) [µM] | Ki (KAT6A; [4]) [µM] | Ki (KAT6A; [5]) [µM] | Ki (KAT8) [µM] | Ki (KAT7; KAT7 Ki at 1 μM AcCoA) [µM] | Ki (KAT6A; KAT6a Ki at 1 μM AcCoA, 1 μM AcCoA) [µM] | Ki (KAT6A; KAT6a Ki at 10 μM AcCoA, 10 μM AcCoA) [µM] |
| --- | --- | --- | --- | --- | --- | --- | --- | --- | --- | --- |
| CCc1ccc(OC)c(S(=O)(=O)Nc2noc3cc(Cn4cccn4)cc(OC)c23)c1 [Example 1, 5-ethyl-2-methoxy-N-{4-methoxy-6-[(1H-pyrazol-1-yl)methyl]-1,2-benzoxazol-3-yl}benzene-1-sulfonamide] | 0.12 | 0.00114 | 0.00068 | 0.05 | 0.00055 | 0.00043 | 0.11 |  |  |  |
| COc1cccc(OC)c1S(=O)(=O)Nc1noc2cc(Cn3nccc3C)cc(OC)c12 [Example 3, 2,6-dimethoxy-N-{4-methoxy-6-[(5-methyl-1H-pyrazol-1-yl)methyl]-1,2-benzoxazol-3-yl}benzene-1-sulfonamide] | 9.79 |  | 0.00863 | 1.72 | 0.00379 | 0.00154 | 17.4 |  |  |  |
| COc1ccc(S(=O)(=O)Nc2noc3cc(Cn4cccn4)cc(OC)c23)c(OC)c1 [Example 5] | 0.53 |  | 0.00268 | 0.08 | 0.00111 | 0.00138 | 0.66 |  |  |  |
| COc1cccc(F)c1S(=O)(=O)Nc1noc2cc(Cn3cccn3)cc(OC)c12 [Example 6] | 0.98 |  | 0.0025 | 0.12 | 0.0015 | 0.00232 | 3.32 |  |  |  |
| COc1cccc(OC)c1S(=O)(=O)Nc1noc2cc(Cn3cc(F)cn3)cc(OC)c12 [Example 7] | 4.53 |  | 0.0283 | 0.23 | 0.021 |  | 4.46 |  |  |  |
| COc1cc(Br)cc(OC)c1S(=O)(=O)Nc1noc2cc(Cn3cccn3)cc(OC)c12 [Example 8] | 1.71 | 0.00663 | 0.00574 | 0.06 | 0.00154 | 0.00323 | 2.87 |  |  |  |
| COc1cccc(OC)c1S(=O)(=O)Nc1noc2cc(Cn3cccn3)cc(OC(C)C)c12 [Example 10] | 60.2 |  | 0.00227 | 9.32 | 0.00272 | 0.00465 | 19.4 |  |  |  |
| COc1cccc(OC)c1S(=O)(=O)Nc1noc2cc(Cn3cccn3)cc(OC3CC3)c12 [Example 11] | 12.5 |  | 0.0146 | 5.96 | 0.00286 | 0.00557 | 3.26 |  |  |  |
| COCc1ccc(OC)c(S(=O)(=O)Nc2noc3cc(Cn4cccn4)cc(OC)c23)c1 [Example 12] | 1.17 | 0.00214 | 0.00188 | 0.92 | 0.00182 | 0.0017 | 1.07 |  |  |  |
| COc1cc(OC)c(S(=O)(=O)Nc2noc3cc(Cn4cccn4)cc(OC)c23)c(OC)c1 [Example 14] | 0.27 | 0.00105 |  | 0.05 | 0.00112 | 0.00049 | 0.42 |  |  |  |
| CCc1cc(S(=O)(=O)Nc2noc3cc(Cn4cccn4)cc(OC)c23)c(OC)cc1OC [Example 15] | 0.07 | 0.0006 |  | 0.03 | 0.00065 | 0.00035 | 0.17 |  |  |  |
| COc1ccc(OC(F)(F)F)cc1S(=O)(=O)Nc1noc2cc(Cn3cccn3)cc(OC)c12 [Example 16] | 0.83 | 0.00173 |  | 0.12 | 0.00127 | 0.00064 | 1.75 |  |  |  |
| COc1ccc(C)cc1S(=O)(=O)Nc1noc2cc(Cn3cccn3)cc(OC)c12 [Example 17] | 0.15 | 0.00121 |  | 0.09 | 0.0007 | 0.00051 | 0.22 |  |  |  |
| COc1ccc(C(C)C)cc1S(=O)(=O)Nc1noc2cc(Cn3cccn3)cc(OC)c12 [Example 18] | 0.13 | 0.00096 |  | 0.12 | 0.00083 | 0.00038 | 0.1 |  |  |  |
| COc1ccc(OC)c(S(=O)(=O)Nc2noc3cc(Cn4cccn4)cc(OC)c23)c1 [Example 19] | 0.8 | 0.00344 |  | 0.15 | 0.00218 |  | 0.96 |  |  |  |
| COc1cc2c(cc1S(=O)(=O)Nc1noc3cc(Cn4cccn4)cc(OC)c13)CCCC2 [Example 20] | 0.15 | 0.00408 | 0.00178 |  | 0.00034 | 0.00087 | 0.47 |  |  |  |
| COc1ccc2c(c1S(=O)(=O)Nc1noc3cc(Cn4cccn4)cc(OC)c13)CCCC2 [Example 21] | 1.03 | 0.00114 |  | 0.12 | 0.00123 |  | 0.83 |  |  |  |
| COc1cccc(OC)c1S(=O)(=O)Nc1noc2cc(Cn3ccnn3)cc(OC)c12 [Example 22] | 11.7 |  | 0.0132 | 12.9 | 0.0165 |  | 17.4 |  |  |  |
| COc1cccc(OC)c1S(=O)(=O)Nc1noc2cc(Cn3nccn3)cc(OC)c12 [Example 23] | 2.07 | 0.00134 | 0.00087 | 0.04 | 0.00122 | 0.00124 | 1.97 |  |  |  |
| COc1cc(C2CC2)cc(OC)c1S(=O)(=O)Nc1noc2cc(Cn3cccn3)cc(OC)c12 [Example 24] | 0.19 | 0.00189 |  | 0.02 | 0.00101 | 0.00046 | 0.16 |  |  |  |
| CCOc1cc(Cn2cccn2)cc2onc(NS(=O)(=O)c3c(OC)cccc3OC)c12 [Example 25] | 12.5 | 0.00446 |  | 1.08 | 0.00274 | 0.00183 | 12.5 |  |  |  |

| SMILES | Ki (KAT5) [µM] | Ki (KAT6B; [1]) [µM] | Ki (KAT6B; [2]) [µM] | Ki (KAT7; [3]) [µM] | Ki (KAT6A; [4]) [µM] | Ki (KAT6A; [5]) [µM] | Ki (KAT8) [µM] | Ki (KAT7; KAT7 Ki at 1 μM AcCoA) [µM] | Ki (KAT6A; KAT6a Ki at 1 μM AcCoA, 1 μM AcCoA) [µM] | Ki (KAT6A; KAT6a Ki at 10 μM AcCoA, 10 μM AcCoA) [µM] |
| --- | --- | --- | --- | --- | --- | --- | --- | --- | --- | --- |
| COc1cc(OC)c(S(=O)(=O)Nc2noc3cc(Cn4cccn4)cc(OC4CC4)c23)c(OC)c1 [Example 26] | 125 | 0.0127 |  | 7.79 | 0.00801 | 0.00316 | 27.1 |  |  |  |
| COc1cccc(OC)c1S(=O)(=O)Nc1noc2cc(Cn3cccn3)c(C3CC3)cc12 [Example 31] |  | 0.00089 |  | 0.056 | 0.00032 |  |  |  |  |  |
| CCc1ccc(OC)c(S(=O)(=O)Nc2noc3cc(Cn4cccn4)c(F)cc23)c1 [Example 32] |  | 0.0021 |  | 0.06 | 0.0014 |  |  |  |  |  |
| COc1ccccc1S(=O)(=O)Nc1noc2cc(Cn3cccn3)ccc12 [Example 34] |  | 0.0042 |  | 1.2 | 0.03 |  |  |  |  |  |
| COc1cc2c(NS(=O)(=O)c3c(OC)cccc3OC)noc2cc1Cn1cccn1 [Example 39] |  | 0.00026 |  | 0.008 | 0.00074 |  |  |  |  |  |
| COc1cccc(OC)c1S(=O)(=O)Nc1noc2cc(Cn3cccn3)c(OC(F)F)cc12 [Example 41] |  | 0.00036 |  | 0.23 | 0.00036 |  |  |  |  |  |
| COc1cc2c(cc1S(=O)(=O)Nc1noc3cc(Cn4cccn4)cc(OC)c13)CCCO2 [Example 42] |  | 0.00048 |  | 0.16 | 0.00072 |  |  |  |  |  |
| COCc1ccc(OC)c(S(=O)(=O)Nc2noc3cc(Cn4cccn4)c(F)cc23)c1 [Example 44] |  | 0.043 |  | 0.63 | 0.012 |  |  |  |  |  |
| COc1cccc(OC)c1S(=O)(=O)Nc1noc2cc(Cc3ccccn3)cc(OC)c12 [Example 107, 2,6-dimethoxy-N-[4-methoxy-6-(pyridin-2-ylmethyl)-1,2-benzoxazol-3-yl]benzenesulfonamide] |  | 0.0029 |  | 0.37 | 0.0017 | 0.0026 |  |  |  |  |
| COc1cccc(OC)c1S(=O)(=O)Nc1noc2cc(Cc3ncco3)cc(OC)c12 [Example 110, 2,6-dimethoxy-N-[4-methoxy-6-(1,3-oxazol-2-ylmethyl)-1,2-benzoxazol-3-yl]benzenesulfonamide] |  | 0.0088 |  |  |  |  |  | 0.23 | 0.0025 | 0.0021 |
| COc1cccc(OC)c1S(=O)(=O)Nc1noc2cc(Cc3ccon3)cc(OC)c12 [Example 114] |  | 0.002 |  | 0.22 | 0.0019 |  |  |  |  |  |
| COc1cccc(OC)c1S(=O)(=O)Nc1noc2cc(Cc3ncccn3)cc(OC)c12 [Example 116] |  | 0.025 |  | 0.095 | 0.003 |  |  |  |  |  |
| COc1cccc(OC)c1S(=O)(=O)Nc1noc2cc(Cc3cnn(C)c3)cc(OC)c12 [Example 124] |  |  |  | 6.29 | 0.7 |  |  |  |  |  |
| COc1cccc(OC)c1S(=O)(=O)Nc1noc2cc(Cc3cocn3)cc(OC)c12 [Example 127] |  |  |  | 0.137 | 0.0086 |  |  |  |  |  |
| COc1cccc(OC)c1S(=O)(=O)Nc1noc2cc(Cn3cccn3)c(F)c(OC)c12 [Example 128, N-{5-fluoro-4-methoxy-6-[(1H-pyrazol-1-yl)methyl]-1,2-benzoxazol-3-yl}-2,6-dimethoxybenzene-1-sulfonamide] |  | 0.0012 |  | 0.049 | 0.00054 | 0.00059 |  |  |  |  |
| COc1ccccc1S(=O)(=O)Nc1noc2cc(Cn3cccn3)c(F)c(OC)c12 [Example 129] |  |  |  | 0.0106 | 0.00033 |  |  |  |  |  |
| COc1ccccc1S(=O)(=O)Nc1noc2cc(Cn3cccn3)cc(C3CC3)c12 [Example 130] |  |  |  | 0.1 | 0.00077 |  |  |  |  |  |
| Cc1ccc(S(=O)(=O)Nc2noc3cc(Cn4cccn4)c(C)cc23)cc1C [Example 131] |  |  |  | 0.662 | 0.0283 |  |  |  |  |  |
| COc1ccccc1S(=O)(=O)Nc1noc2cc(Cn3cccn3)c(C)cc12 [Example 132] |  |  |  | 0.124 | 0.0041 |  |  |  |  |  |
| COc1ccccc1S(=O)(=O)Nc1noc2cc(Cn3nccn3)cc(OC)c12 [Example 133] |  |  |  | 0.0192 | 0.0029 |  |  |  |  |  |
